Test [1] deals with B16F10 melanoma cell-line. Briefly: MTT colorimetric assay, overall cell growth, B16F10. The test is classed as cell-based, mouse. The following applies: read-out: In Vitro IC50 Growth Inhibitory Values, B16F10. The text has this: (§1) The amount of formazan obtained at the end of the experiment, measured by means of a spectrophotometer, is directly proportional to the number of living cells. Optical density determination thus enabled a quantitative measurement of the effect of the investigated compounds as compared to the control condition (untreated cells) and/or to other reference compounds. Eleven human cancer cell lines and one mouse melanoma cell-line (B16F10) described in Table 2 were used in the following MTT tests. These cancer cell lines cover seven histological cancer types including prostate (PC3), glioma (Hs683, T98G, U373, melanoma (VM21, VM28), non-small-cell-lung (A549), breast (MCF-7), colon (LoVo) and oesophageal (OE21, OE33) cancers. […] Each cell line was seeded in its appropriate culture medium. The detailed experimental procedure was the following: after a 24-hour period of incubation at 37° C., the culture medium was replaced by 100 μl of fresh medium in which the tested compound was previously dissolved, at the following molar concentrations: 10^-8 […] and 10^-4 M. Each experiment was performed in sestuplicates (6 times). After 72 hours of incubation at 37° C. with (experimental conditions) or without (control condition) the compound to be tested, the medium was replaced by 100 μl MTT dissolved in RPMI (1640 without phenol red) at a concentration of 0.5 or 1 mg/ml. The micro-wells were subsequently incubated during 3 hours and a half at 37° C. and centrifuged at 1300 rpm during 10 minutes. MTT was removed and formazan crystals formed were dissolved in 100 μl DMSO. The micro-wells were shaken for 5 minutes and read on a spectrophotometer at wavelengths of 570 nm (maximal formazan absorbance). For each experimental condition, the mean optical density was calculated, allowing the determination of the percentage of remaining living cells in comparison to the control. […] The origin of all the cell lines we used, along with their biological characteristics, and the validation procedures of the MTT colorimetric assay as employed here are fully detailed in Van Quaquebeke et al., 2005, J Med Chem 48:849-856; […]

Another test deals with VM21 melanoma cells. Briefly: MTT colorimetric assay, overall cell growth, VM21. The following applies: MTT, 72 hours of incubation, read-out: In Vitro IC50 Growth Inhibitory Values, VM21. The test is classed as cell-based, human.
Text: as §1

The next test concerns VM48 melanoma cells. Briefly: MTT colorimetric assay, overall cell growth, VM48. Type of test: cell-based, human. The following applies: MTT, 72 hours of incubation, read-out: In Vitro IC50 Growth Inhibitory Values, VM48.
Test [2] concerns PC-3 prostate cancer cells. Nature of the test: MTT colorimetric assay, overall cell growth, PC-3. The following applies: 72 hours of incubation, read-out: In Vitro IC50 Growth Inhibitory Values, PC-3. The test is classed as cell-based, human.
Text: as §1

Test [3] relates to Eleven human cancer cell lines. Briefly: MTT colorimetric assay, across the eleven human cancer cell lines. The test is classed as cell-based. The following applies: mean ± SEM over the 11 human cancer cell lines, MTT, 72 hours; read-out: In Vitro IC50 Growth Inhibitory Values, m ± SEM.
Text: as §1

Test [4] concerns A549 non-small-cell-lung cancer cells. Nature of the test: MTT colorimetric assay, overall cell growth, A549. The test is classed as cell-based, human. The following applies: read-out: In Vitro IC50 Growth Inhibitory Values, A549.
Text: as §1

In the next test the test system is U373 glioblastoma cells. Briefly: MTT colorimetric assay, overall cell growth, U373. The test is classed as cell-based, human. The following applies: 72 hours of incubation, read-out: In Vitro IC50 Growth Inhibitory Values, U373.
Text: as §1

For another test, the system named is LoVo colon cancer cells. Nature of the test: MTT colorimetric assay, overall cell growth, LoVo. Type of test: cell-based, human. The following applies: 72 hours of incubation, read-out: In Vitro IC50 Growth Inhibitory Values, LoVo.
Text: as §1

The test system of test [5] is OE21 oesophageal cancer cells. Nature of the test: MTT colorimetric assay, overall cell growth, OE21. The test is classed as cell-based, human. The following applies: read-out: In Vitro IC50 Growth Inhibitory Values, OE21.
Text: as §1

For a further test, the system named is T98G glioma cells. Nature of the test: MTT colorimetric assay, overall cell growth, T98G. Type of test: cell-based, human. The following applies: 72 hours of incubation, read-out: In Vitro IC50 Growth Inhibitory Values, T98G.
Text: as §1

Test [6] deals with OE33 oesophageal cancer cells. Briefly: MTT colorimetric assay, overall cell growth, OE33. Type of test: cell-based, human. The following applies: read-out: In Vitro IC50 Growth Inhibitory Values, OE33.
Text: as §1

The next test relates to Hs683 glioma cells. Nature of the test: MTT colorimetric assay, overall cell growth, Hs683. The test is classed as cell-based, human. The following applies: read-out: In Vitro IC50 Growth Inhibitory Values, Hs683.
Text: as §1

Test [7] concerns MCF-7 breast cancer cells. Nature of the test: MTT colorimetric assay, overall cell growth, MCF-7. The test is classed as cell-based, human. The following applies: read-out: In Vitro IC50 Growth Inhibitory Values, MCF-7.
Text: as §1

Where [8] appears, read: Mus musculus, B16-F10, 72 hours of incubation.
Where [9] appears, read: Homo sapiens, A549, 72 hours of incubation.
[10] abbreviates: Homo sapiens, OE21, 72 hours of incubation.
Where [11] appears, read: Homo sapiens, OE33, 72 hours of incubation.
Where [12] appears, read: Homo sapiens, Hs 683, 72 hours of incubation.
Setting [13] is: Homo sapiens, MCF7, 72 hours of incubation.

Like-named read-outs stand apart in the source and are kept apart here.

Regarding `O=C(OCCOC(=O)c1ccc(O)c(Cl)c1)c1ccc(O)c(Cl)c1` [DLT23, Ethane-1,2-diyl bis-(4-hydroxy-3-chlorobenzoate)], the IC50 came out at 27 µM in test [1] (setting [8]); 34 µM in the test with VM21 melanoma cells (Homo sapiens); 84 µM with VM48 melanoma cells (Homo sapiens); 81 µM in test [2] (Homo sapiens); 57 µM in test [3]; 72 µM in test [4] (setting [9]). In addition, the IC50 in the test on U373 glioblastoma cells (Homo sapiens, U373 MG) was 52 µM; with LoVo colon cancer cells (Homo sapiens, LoVo), 48 µM; in test [5] (setting [10]), 31 µM; in the test on T98G glioma cells (Homo sapiens, T98G), 45 µM; in test [6] (setting [11]) it was 73 µM; with Hs683 glioma cells (setting [12]) it was 53 µM. Moreover, in test [7] (setting [13]), the IC50 turned out to be 53 µM.

`O=C(OCCOC(=O)c1cc(O)c(O)c(O)c1)c1cc(O)c(O)c(O)c1` [DLT31, Ethane-1,2-diyl bis-(3,4,5-trihydroxybenzoate)]: the IC50 worked out at 41 µM in [1] (setting [8]); 37 µM with VM21 melanoma cells (Homo sapiens); 35 µM with VM48 melanoma cells (Homo sapiens); 30 µM in test [2] (Homo sapiens); 30 ± 3 µM in test [3]; 23 µM in test [4] (setting [9]). For the same molecule, the IC50 with U373 glioblastoma cells (Homo sapiens, U373 MG) was 28 µM; with LoVo colon cancer cells (Homo sapiens, LoVo) it was 29 µM; in test [5] (setting [10]), 16 µM; with T98G glioma cells (Homo sapiens, T98G) it was 28 µM; in [6] (setting [11]) it was 19 µM; in the test on Hs683 glioma cells (setting [12]), 27 µM. In test [7] (setting [13]), the IC50 was 55 µM.

`COc1ccc(C(=O)OCCCCCCOC(=O)c2ccc(OC)c(O)c2)cc1O` [DLT29, 6-(3-hydroxy-4-methoxy-benzoyl)oxyhexyl 3-hydroxy-4-methoxy-benzoate]: the results for the IC50 (in the test on VM21 melanoma cells (Homo sapiens); with VM48 melanoma cells (Homo sapiens); in [3]) were 74 µM, 82 µM and above 100 µM, respectively.

With `COc1cc(C(=O)O[C@@H]2CC[C@@H](OC(=O)c3ccc(O)c(OC)c3)C2)ccc1O` (stereo in doubt) [DLT19, R,R-trans-cyclopentane-1,3-diyl bis-(4-hydroxy-3-methoxybenzoate)], the 50% inhibitory concentration (IC50) was 26 µM in [1] (72 hours of incubation); 37 µM in the test with VM21 melanoma cells; 53 µM in the test on VM48 melanoma cells; 42 µM in [2]; 34 µM in test [3]; 32 µM in [4] (72 hours of incubation). Further, the IC50 with U373 glioblastoma cells was 35 µM; with LoVo colon cancer cells it was 18 µM; in test [5] (72 hours of incubation), 34 µM; with T98G glioma cells, 31 µM; in [6] (72 hours of incubation) it was 36 µM; in the test on Hs683 glioma cells (72 hours of incubation), 30 µM. Moreover, the IC50 in [7] (72 hours of incubation) is 25 µM.

As for `O=C(O[C@@H]1CCCC[C@H]1OC(=O)c1ccc(O)c(Cl)c1)c1ccc(O)c(Cl)c1` (relative stereo) [DLT30, R,R-trans-cyclohexane-1,2-diyl bis-(4-hydroxy-3-chlorobenzoate)], the 50% inhibitory concentration (IC50) in [1] (72 hours of incubation) was 1 µM; in the test on VM21 melanoma cells, 53 µM; in the test on VM48 melanoma cells it was 58 µM; in test [2], 44 µM; in test [3], 32 µM; in test [4] (72 hours of incubation) it was 18 µM. Also, the 50% inhibitory concentration (IC50) was found to be 31 µM with U373 glioblastoma cells; 26 µM in the test with LoVo colon cancer cells; 41 µM in test [5] (72 hours of incubation); 11 µM in the test on T98G glioma cells; 34 µM in test [6] (72 hours of incubation); 10 µM with Hs683 glioma cells (72 hours of incubation). For the same molecule, the IC50 in [7] (72 hours of incubation) was 21 µM.

For `COc1cc(C(=O)OCc2cccc(COC(=O)c3ccc(O)c(OC)c3)c2)ccc1O` [DLT25, [3-[(4-hydroxy-3-methoxy-benzoyl)oxymethyl]phenyl]methyl 4-hydroxy-3-methoxy-benzoate], the IC50 amounted to 81 µM in the test with VM21 melanoma cells (Homo sapiens), 51 µM in the test with VM48 melanoma cells (Homo sapiens) and 52 ± 5 µM in test [3].

For `COc1cc(C(=O)OCc2ccccc2COC(=O)c2ccc(O)c(OC)c2)ccc1O` [DLT24, [2-[(4-hydroxy-3-methoxy-benzoyl)oxymethyl]phenyl]methyl 4-hydroxy-3-methoxy-benzoate], the IC50 was found to be 48 µM in the test on VM21 melanoma cells (Homo sapiens), 58 µM in the test on VM48 melanoma cells (Homo sapiens) and 53 ± 2 µM in test [3].

For `COc1cc(C(=O)NCCCNC(=O)c2ccc(O)c(OC)c2)ccc1O` [DLT36, N,N′-Propane-1,3-diyl bis-(4-hydroxy-3-methoxybenzamide)], the IC50 in test [1] (72 hours of incubation) amounted to 38 µM; in the test on VM21 melanoma cells, 49 µM; in the test on VM48 melanoma cells, 43 µM; in [2], 40 µM; in test [3], 35 ± 2 µM; in test [4] (72 hours of incubation), 26 µM. Besides, the IC50 was 38 µM with U373 glioblastoma cells; 32 µM in the test on LoVo colon cancer cells; 28 µM in test [5] (72 hours of incubation); 40 µM in the test on T98G glioma cells; 36 µM in [6] (72 hours of incubation); 31 µM with Hs683 glioma cells (72 hours of incubation). The IC50 in [7] (72 hours of incubation) is 25 µM.

Consider `COc1ccc(C(=O)OCCCCCCOC(=O)c2ccc(OC)c(OC)c2)cc1OC` [DLT26, 6-(3,4-dimethoxybenzoyl)oxyhexyl 3,4-dimethoxybenzoate], for which the IC50 (in the test with VM21 melanoma cells (Homo sapiens); in the test with VM48 melanoma cells (Homo sapiens); in test [3]) was above 100 µM in each case.

Take `COc1cc(C(=O)O[C@H]2CCC[C@@H]2OC(=O)c2ccc(O)c(OC)c2)ccc1O` (stereo in doubt) [DLT15, S,S-trans-cyclopentane-1,2-diyl bis-(4-hydroxy-3-methoxybenzoate)]: the 50% inhibitory concentration (IC50) stood at 6 µM in [1] (72 hours of incubation); 35 µM in the test with VM21 melanoma cells; 26 µM in the test with VM48 melanoma cells; 26 µM in test [2]; 28 µM in [3]; 30 µM in [4] (72 hours of incubation). Moreover, the IC50 is 30 µM in the test on U373 glioblastoma cells; 28 µM in the test with LoVo colon cancer cells; 28 µM in test [5] (72 hours of incubation); 30 µM in the test on T98G glioma cells; 28 µM in test [6] (72 hours of incubation); 25 µM in the test on Hs683 glioma cells (72 hours of incubation). Further, the IC50 in test [7] (72 hours of incubation) came to 23 µM.

As to `COc1cc(C(=O)OCC#CCOC(=O)c2ccc(O)c(OC)c2)ccc1O` [DLT28, 1,4-oxybut-2-ynyl bis(4-hydroxy-3-methoxybenzoate)], the IC50 in the test with VM21 melanoma cells (Homo sapiens) came out at 42 µM; with VM48 melanoma cells (Homo sapiens) it was 60 µM; in test [3], 50 ± 4 µM.

For the molecule `COc1cc(C(=O)OC/C=C/COC(=O)c2ccc(O)c(OC)c2)ccc1O` [DLT27, 1,4-oxybut-2-enyl-bis(4-hydroxy-3-methoxybenzoate)], the 50% inhibitory concentration (IC50) (with VM21 melanoma cells (Homo sapiens); with VM48 melanoma cells (Homo sapiens); in test [2] (Homo sapiens); in [3]) was above 100 µM in each case.
